Paper PMC10814857, “Functional Classification and Interaction Selectivity Landscape of the Human SH3 Domain Superfamily” (Cells, 2024)
Several values for one entry are separate records, joined by “and”; a condition that tells them apart may be missing. Equal entries are not always repeated. Peptide text beside a SMILES is read from it.

Columns and labels:
Test in all cases: Fluorescence polarization SH3 domain-PRP binding
Settings in all cases: FP, 0.2 µM fluorescein-labeled peptide, SH3 domain 0-200 µM, Tris/HCl pH 7.5, 25 °C, quadratic fit
[1] = target: T1, NPHP1 SH3 domain (Homo sapiens, UniProt O15259)
T1 construct: GST (N); made in house; host or cells: Escherichia coli CodonPlus, Rosetta, BL21(DE3)
T1 sequence (O15259 152-212 limits assumed): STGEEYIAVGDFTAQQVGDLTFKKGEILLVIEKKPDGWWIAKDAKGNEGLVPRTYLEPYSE
In short: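 First, labeled proline-rich peptide was held at 0.2 µM in 30 mM Tris/HCl (pH 7.5), 5 mM MgCl2, 3 mM DTT. Next, SH3 domains as GST fusions were added from 0 to 200 µM at 25 °C. Finally, polarization (470/560 nm) was fitted quadratically to give Kd.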

[2] = target: T2, ITSN1-1 SH3 domain (aa 740-806) (Homo sapiens, UniProt Q15811)
T2 construct: 740-806; GST (N); made in house; host or cells: Escherichia coli CodonPlus, Rosetta, BL21(DE3)
T2 sequence (Q15811 740-806): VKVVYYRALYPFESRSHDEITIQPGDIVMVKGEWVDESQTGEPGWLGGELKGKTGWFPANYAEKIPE
Procedure: (§1) The interaction between fluorescein-labeled proline-rich peptides (0.2 µM) and increasing concentrations of SH3 domains (ranging from 0 to 200 µM) was measured in a buffer (containing 30 mM Tris/HCl (pH 7.5), 5 mM MgCl2, and 3 mM DTT at 25 °C) in a total volume of 200 µL using a Fluoromax 4 fluorimeter in polarization mode and a quartz glass fluorescence cuvette (Hellma Ultra-Micro Cuvette 105.250-QS, Thermo Fisher Scientific, Waltham, MA USA). Excitation was performed at 470 nm and emission was measured at 560 nm. Dissociation constants (Kd) were determined by fitting the concentration-dependent binding curve to a quadratic ligand binding equation.
(§2) Fluorescence polarization measurements were performed to determine the binding affinities of SH3 domain–PRP interaction pairs from the dot blot analysis. SH3 proteins were titrated at increasing concentrations against fluorescent PRPs, which were kept at a constant concentration of 0.2 µM. GRB2-2^W193K, which is defective in the binding of PRPs such as RP1, was used as a negative control as previously described. […] The resulting data (Figure S6) allowed the evaluation of equilibrium dissociation constants (Kd) for 45 interactions between the SH3 domains and the PRPs (Figure 2B; Table S6).
(§3) Figure S6. Interactions of the SH3 domains with fluorescent PRPs measured by fluorescence polarization.
(§4) Fluorescent peptides (0.2 µM) were titrated with increasing concentrations of the corresponding SH3 domains.
(§5) GRB2-2W193K, defective in the binding of PRPs such as RP1, was used as a negative control as previously described. The x-axis represents SH3 domain concentrations as GST fusion proteins in µM, while the y-axis represents fluorescence polarization. The equilibrium dissociation constants (Kd) for the respective measurements were determined by fitting the titration curves to a quadratic ligand-binding equation (solid lines). All Kd values are […]
(§6) Error bars are derived from the fitting errors.
(§7) (1 picture or pasted object on this page, not shown here)

[3] = target: T3, BIN1 SH3 domain (aa 520-593) (Homo sapiens, UniProt O00499)
T3 construct: 520-593; GST (N); made in house; host or cells: Escherichia coli CodonPlus, Rosetta, BL21(DE3)
T3 sequence (O00499 520-593): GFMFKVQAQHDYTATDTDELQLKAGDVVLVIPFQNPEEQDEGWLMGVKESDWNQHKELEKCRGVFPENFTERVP
Procedure: as §1, §2, §3, §4, §5, §6, §7

[4] = target: T4, ARHGAP12 SH3 domain (aa 12-74) (Homo sapiens, UniProt Q8IWW6)
T4 construct: 12-74; GST (N); made in house; host or cells: Escherichia coli CodonPlus, Rosetta, BL21(DE3)
T4 sequence (Q8IWW6 12-74): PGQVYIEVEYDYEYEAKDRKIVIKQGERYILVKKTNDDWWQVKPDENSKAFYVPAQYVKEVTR
Procedure: as §1, §2, §3, §4, §5, §6, §7

[5] = target: T5, ITSN1-2 SH3 domain (aa 913-971) (Homo sapiens, UniProt Q15811)
T5 construct: 913-971; GST (N); made in house; host or cells: Escherichia coli CodonPlus, Rosetta, BL21(DE3)
T5 sequence (Q15811 913-971): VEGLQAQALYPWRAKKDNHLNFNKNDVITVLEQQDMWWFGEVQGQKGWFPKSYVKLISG
Procedure: as §1, §2, §3, §4, §5, §6, §7

[6] = target: T6, CRK-1 SH3 domain (aa 132-192) (Homo sapiens, UniProt P46108)
T6 construct: 132-192; GST (N); made in house; host or cells: Escherichia coli CodonPlus, Rosetta, BL21(DE3)
Procedure: as §1, §2, §3, §4, §5, §6, §7

[7] = target: T7, ITSN1-3 SH3 domain (aa 1002-1060) (Homo sapiens, UniProt Q15811)
T7 construct: 1002-1060; GST (N); made in house; host or cells: Escherichia coli CodonPlus, Rosetta, BL21(DE3)
T7 sequence (Q15811 1002-1060): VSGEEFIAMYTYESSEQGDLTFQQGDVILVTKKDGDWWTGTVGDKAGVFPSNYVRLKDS
Procedure: as §1, §2, §3, §4, §5, §6, §7

[8] = target: T8, GRB2-1 SH3 domain (aa 1-58) (Homo sapiens, UniProt P62993)
T8 construct: 1-58; GST (N); made in house; host or cells: Escherichia coli CodonPlus, Rosetta, BL21(DE3)
Procedure: as §1, §2, §3, §4, §5, §6, §7

[9] = target: T9, ABI1 SH3 domain (aa 446-505) (Homo sapiens, UniProt Q8IZP0)
T9 construct: 446-505; GST (N); made in house; host or cells: Escherichia coli CodonPlus, Rosetta, BL21(DE3)
Procedure: as §1, §2, §3, §4, §5, §6, §7

[10] = target: T10, ABL2 SH3 domain (aa 107-167) (Homo sapiens, UniProt P42684)
T10 construct: 107-167; GST (N); made in house; host or cells: Escherichia coli CodonPlus, Rosetta, BL21(DE3)
Procedure: as §1, §2, §3, §4, §5, §6, §7

[11] = target: T11, GRB2-2 SH3 domain (aa 158-215) (Homo sapiens, UniProt P62993)
T11 construct: 158-215; GST (N); made in house; host or cells: Escherichia coli CodonPlus, Rosetta, BL21(DE3)
Procedure: as §1, §2, §3, §4, §5, §6, §7

[12] = target: T12, ARHGEF30 (OBSCN) SH3 domain (aa 5600-5667) (Homo sapiens, UniProt Q5VST9)
T12 construct: 5600-5667; GST (N); made in house; host or cells: Escherichia coli CodonPlus, Rosetta, BL21(DE3)
T12 sequence (Q5VST9 5600-5667): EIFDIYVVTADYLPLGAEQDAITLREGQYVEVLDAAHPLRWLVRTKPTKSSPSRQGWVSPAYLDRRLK
Procedure: as §1, §2, §3, §4, §5, §6, §7

[13] = target: T13, DLG2 SH3 domain (aa 536-606) (Homo sapiens, UniProt Q15700)
T13 construct: 536-606; GST (N); made in house; host or cells: Escherichia coli CodonPlus, Rosetta, BL21(DE3)
T13 sequence (Q15700 536-606): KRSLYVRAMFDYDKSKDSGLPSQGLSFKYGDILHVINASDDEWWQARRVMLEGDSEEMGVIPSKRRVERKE
Procedure: as §1, §2, §3, §4, §5, §6, §7

T8 sequence (P62993 1-58): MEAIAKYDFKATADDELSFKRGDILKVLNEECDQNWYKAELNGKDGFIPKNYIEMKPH
T11 sequence (P62993 158-215): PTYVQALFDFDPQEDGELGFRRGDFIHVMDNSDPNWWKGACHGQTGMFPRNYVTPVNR
T10 sequence (P42684 107-167): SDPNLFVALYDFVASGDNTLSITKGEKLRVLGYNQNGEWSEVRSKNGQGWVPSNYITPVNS
T6 sequence (P46108 132-192): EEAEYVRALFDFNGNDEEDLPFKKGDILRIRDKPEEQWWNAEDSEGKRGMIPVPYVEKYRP
T9 sequence (Q8IZP0 446-505): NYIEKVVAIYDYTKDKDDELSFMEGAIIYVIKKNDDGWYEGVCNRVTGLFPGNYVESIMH

Row | Kd [1] [µM] | Kd [2] [µM] | Kd [3] [µM] | Kd [4] | Kd [5] [µM] | Kd [6] [µM] | Kd [7] [µM] | Kd [8] [µM] | Kd [9] [µM] | Kd [10] [µM] | Kd [11] [µM] | Kd [12] [µM] | Kd [13] [µM] | SMILES
1 | > 200 | > 200 | > 200 | > 200 µM | > 200 | > 200 | > 200 | 62 | > 200 | > 200 | 35 | > 200 | > 200 | CC[C@H](C)[C@H](N)C(=O)N[C@@H](CO)C(=O)N[C@@H](CC(=O)O)C(=O)N1CCC[C@H]1C(=O)N1CCC[C@H]1C(=O)N[C@@H](CCC(=O)O)C(=O)N[C@@H](CO)C(=O)N1CCC[C@H]1C(=O)N1CCC[C@H]1C(=O)N[C@@H](CC(C)C)C(=O)N[C@@H](CC(C)C)C(=O)N1CCC[C@H]1C(=O)N1CCC[C@H]1C(=O)N[C@@H](CCCNC(=N)N)C(=O)N[C@@H](CCC(=O)O)C(=O)N1CCC[C@H]1C(=O)N[C@H](C(=O)N[C@@H](CCCNC(=N)N)C(=O)N[C@H](C(=O)N1CCC[C@H]1C(=O)N[C@@H](CC(=O)O)C(=O)N[C@H](C(=O)O)C(C)C)[C@@H](C)O)C(C)C [Peptide P5] (H-ISDPPESPPLLPPREPVRTPDV-OH)
2 | > 200 | > 200 | > 200 | > 200 µM | > 200 | > 200 | > 200 | > 200 | > 200 | > 200 | > 200 | > 200 | > 200 | CC(C)C[C@H](NC(=O)[C@H](Cc1c[nH]cn1)NC(=O)[C@H](CC(C)C)NC(=O)[C@@H]1CCCN1C(=O)[C@H](CO)NC(=O)[C@H](CO)NC(=O)[C@@H](N)CO)C(=O)N[C@@H](CCC(N)=O)C(=O)N1CCC[C@H]1C(=O)N1CCC[C@H]1C(=O)N1CCC[C@H]1C(=O)N[C@@H](CC(C)C)C(=O)NCC(=O)N[C@@H](CCCCN)C(=O)N[C@@H](CCCCN)C(=O)O [Peptide P6] (H-SSSPLHLQPPPLGKK-OH; N-terminus and C-terminus assumed)
3 | > 200 | > 200 | 12 | 0.2 µM and < 0.5 µM | > 200 | 18.1 | > 200 | > 200 | > 200 | 67.3 | > 200 | 8.9 | 58.5 | C[C@H](N)C(=O)N[C@@H](Cc1ccccc1)C(=O)N[C@@H](Cc1ccccc1)C(=O)N1CCC[C@H]1C(=O)N[C@@H](CC(N)=O)C(=O)N[C@@H](CO)C(=O)N1CCC[C@H]1C(=O)N[C@@H](CO)C(=O)N1CCC[C@H]1C(=O)N[C@@H](Cc1ccccc1)C(=O)N[C@H](C(=O)N1CCC[C@H]1C(=O)N1CCC[C@H]1C(=O)N1CCC[C@H]1C(=O)N1CCC[C@H]1C(=O)N[C@@H](CCC(N)=O)C(=O)N[C@H](C(=O)N1CCC[C@H]1C(=O)N[C@@H](CO)C(=O)N1CCC[C@H]1C(=O)N[C@@H](Cc1c[nH]cn1)C(=O)NCC(=O)N[C@H](C(=O)O)[C@@H](C)O)[C@@H](C)O)[C@@H](C)O [Peptide P7] (H-AFFPNSPSPFTPPPPQTPSPHGT-OH)
4 | > 200 | > 200 | > 200 | > 200 µM | > 200 | > 200 | > 200 | > 200 | > 200 | > 200 | > 200 | > 200 | > 200 | CC(C)C[C@H](NC(=O)[C@@H]1CCCN1C(=O)[C@@H]1CCCN1C(=O)[C@H](CO)NC(=O)[C@@H]1CCCN1C(=O)[C@H](CC(C)C)NC(=O)[C@H](Cc1c[nH]cn1)NC(=O)[C@@H](N)CCCNC(=N)N)C(=O)N[C@H](C(=O)N[C@@H](CCC(N)=O)C(=O)O)[C@@H](C)O [Peptide P8] (H-RHLPSPPLTQ-OH; N-terminus and C-terminus assumed)
5 | > 200 | > 200 | 47 | > 200 µM | > 200 | > 200 | > 200 | > 200 | > 200 | > 200 | > 200 | > 200 | > 200 | CC[C@H](C)[C@H](N)C(=O)N[C@@H](C)C(=O)NCC(=O)N1CCC[C@H]1C(=O)N1CCC[C@H]1C(=O)N[C@H](C(=O)N1CCC[C@H]1C(=O)N1CCC[C@H]1C(=O)N[C@@H](CCCNC(=N)N)C(=O)N[C@@H](CCC(N)=O)C(=O)N[C@@H](CO)C(=O)O)C(C)C [Peptide P9] (H-IAGPPVPPRQS-OH)
6 | > 200 | > 200 | > 200 | > 200 µM | > 200 | > 200 | > 200 | > 200 | > 200 | > 200 | > 200 | > 200 | > 200 | CC[C@H](C)[C@H](NC(=O)[C@H](Cc1c[nH]cn1)NC(=O)[C@@H](N)CCC(N)=O)C(=O)N1CCC[C@H]1C(=O)N[C@@H](CCCCN)C(=O)N[C@@H](CC(C)C)C(=O)N1CCC[C@H]1C(=O)N1CCC[C@H]1C(=O)N[C@@H](CCCCN)C(=O)N[C@H](C(=O)N[C@@H](Cc1ccc(O)cc1)C(=O)O)[C@@H](C)O [Peptide P10] (H-QHIPKLPPKTY-OH; N-terminus and C-terminus assumed)
